From patent publication US8252781B2, “1,2-diazetidin-3-one derivatives and drugs containing same” (Kowa Company, Ltd., priority 2008, dated 2012)
Read-outs that look alike come from different tables or passages of the source.

Experiments:
mouse 11β-HSD1 = target: T1, mouse 11β-HSD1 (Mus musculus, UniProt P50172); assay: Enzyme inhibitory activity, mouse 11β-HSD1 (lysate of stably expressing CHO-K1 cells, cortisol by competitive ELISA); assay type: biochemical; conditions: Table 2; mouse 11β-HSD1, cell lysate, 37° C. for 1 hour; read-out: m HSD1 in vitro assay (IC50 uM)
T1 construct: The obtained PCR products of about 0.9 kbp, 1.2 kbp, and 0.9 kbp were subcloned into an expression vector pcDNA3.1+/Zeo; expressed in transfected cells
Experimental: (§1) 1. Human 11β-HSD1-, Human 11β-HSD2- and Mouse 11β-HSD1-Gene Clonings and Establishment of Stably Expressing Cells
(§2) Human 11β-HSD1-, human 11β-HSD2-, and mouse 11β-HSD1-gene clonings were conducted using as a template a reverse transcription product of human-liver RNA, human-kidney RNA (CELL APPLICATIONS), and mouse-kidney RNA respectively, by means of PCR cloning with reference to nucleotide sequences of Genbank Accession Nos. NM_005525, NM_000196, and NM_008288. The obtained PCR products of about 0.9 kbp, 1.2 kbp, and 0.9 kbp were subcloned into an expression vector pcDNA3.1+/Zeo (Invitrogen).
(§3) Human 11β-HSD1- and human 11β-HSD2-expressing vectors were transfected into human kidney-derived cell line, HEK293 cells, using a transfection reagent, jet PEI (Funakoshi). Mouse 11β-HSD1 was transfected to Chinese hamster ovary-derived cell line, CHO-K1 cells. Selection was conducted with 200-400 μg/mL of zeocine (Invitrogen) to provide stably expressing-cell clones. The stably expressing cells were suspended in buffer solution A (20 mmol/L Tris-HCl, pH 7.4, 250 mmol/L sucrose, 1 mmol/L EGTA, 1 mmol/L EDTA, 1 mmol/L MgCl2), sonicated, and then stored at −80° C.
(§4) 2. Assay of Enzyme Inhibitory Activity
(§5) An enzymatic reaction was conducted using a polystyrene 96-well plate. Each well was added with 1 μL of a test agent dissolved in DMSO and then diluted (0.003 to 3 mmol/L), and further added with 10 μL of cell lysate diluted to a concentration of 0.1 mg/mL to 0.4 mg/mL. Next, 90 μL of buffer solution A containing substrate (100 nmol/L cortisone or cortisol) and coenzyme (400 μmol/L NADPH or NAD+) was added and the mixture was incubated at 37° C. for 1 hour. The enzymatic reaction was stopped by treating at 95° C. for 3 minutes. Cortisol that was present in the reaction solution was determined by a competitive ELISA shown below.
(§6) Anti-rabbit IgG antibody (Chemi-con) diluted to 2 μg/mL with carbonate buffer solution (pH 9.6) was added in 100 μL each to a 96-well immuno plate (Nunc) and immobilized by an incubation at 4° C. overnight. 50 μL of enzymatic reaction solution was put onto the plates, and further, anti-cortisol antibody (Cosmo Bio) and HRP-labeled cortisol (Cosmo Bio), diluted with buffer solution B (25 mmol/L Tris-HCl pH 7.4, 137 mmol/L NaCl, 2.68 mmol/L KCl), were added in 50 μL respectively and incubated at 4° C. overnight. After washed three times with buffer solution B containing 0.05% Tween 20, the plates were allowed to develop color by adding 100 μL of color reagent, TMB (Moss). The color reaction was stopped by 25 μL of 1 mol/L sulfuric acid and the absorbance was determined at 450 nm with a microplate reader (Molecular Device, VersaMax).
(§7) The values of human 11β-HSD1, human 11β-HSD2, and mouse 11β-HSD1 activities were subtracted from 100, and the resultant values were regarded as the respective 11β-HSD inhibition rates of example compounds. […] The comparison of human 11β-HSD1 and human 11β-HSD2 inhibiting activities is shown in Table 1, and the comparison of human 11β-HSD1 and mouse 11β-HSD1 inhibiting activities is shown in Table 2.

human 11β-HSD1 = target: T2, human 11β-HSD1 (Homo sapiens, UniProt P28845); assay: Enzyme inhibitory activity, human 11β-HSD1 (lysate of stably expressing HEK293 cells, cortisol by competitive ELISA); assay type: biochemical; conditions: human 11β-HSD1, cell lysate, 37° C. for 1 hour, read-out: h HSD1 in vitro assay (IC50 uM)
T2 construct: The obtained PCR products of about 0.9 kbp, 1.2 kbp, and 0.9 kbp were subcloned into an expression vector pcDNA3.1+/Zeo; expressed in transfected cells
Experimental: as §1, §2, §3, §4, §5, §6, §7

T1 sequence (P50172 whole entry): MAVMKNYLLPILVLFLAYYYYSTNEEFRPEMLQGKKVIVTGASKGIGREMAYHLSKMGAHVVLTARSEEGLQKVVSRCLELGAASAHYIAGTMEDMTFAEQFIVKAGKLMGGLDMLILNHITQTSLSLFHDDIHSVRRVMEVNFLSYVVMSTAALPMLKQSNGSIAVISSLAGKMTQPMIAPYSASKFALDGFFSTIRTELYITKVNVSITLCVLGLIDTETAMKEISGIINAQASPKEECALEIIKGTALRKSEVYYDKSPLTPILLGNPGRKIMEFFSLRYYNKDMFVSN
T2 sequence (P28845 whole entry): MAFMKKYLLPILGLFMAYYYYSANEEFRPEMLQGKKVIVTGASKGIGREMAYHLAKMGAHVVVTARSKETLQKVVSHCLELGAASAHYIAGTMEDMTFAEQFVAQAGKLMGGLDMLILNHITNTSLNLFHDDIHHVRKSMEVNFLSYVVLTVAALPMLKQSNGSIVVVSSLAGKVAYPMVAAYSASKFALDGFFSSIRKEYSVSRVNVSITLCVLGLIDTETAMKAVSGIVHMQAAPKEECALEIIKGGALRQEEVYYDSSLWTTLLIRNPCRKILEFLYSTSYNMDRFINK

Row | Compound | IC50 (mouse 11β-HSD1) | IC50 (human 11β-HSD1; Table 2) | IC50 (human 11β-HSD1; Table 1)
1 | CC1C(=O)N(C2C3CC4CC(C3)CC2C4)N1Cc1ccccc1 (stereo not drawn) [Example 8, 1-benzyl-4-methyl-2-(adamantan-2-yl)-1,2-diazetidin-3-one] | 0.18 µM | 0.79 µM | 
2 | CC1C(=O)N(C2C3CC4CC(C3)CC2C4)N1Cc1ccc(Cl)cc1 (stereo not drawn) [Example 9, 1-(4-chlorobenzyl)-4-methyl-2-(adamantan-2-yl)-1,2-diazetidin-3-one] | 0.24 µM | 0.68 µM | 
3 | CC1(C)C(=O)N(C2C3CC4CC(C3)CC2C4)N1Cc1ccc(F)c(F)c1 (stereo not drawn) [Example 16, 1-(3,4-difluorobenzyl)-4,4-dimethyl-2-(adamantan-2-yl)-1,2-diazetidin-3-one] | 0.1 µM | 0.8 µM | 
4 | Cc1ccc(C)c(C(=O)N2N(C3CCCCC3)C(=O)C2(C)C)c1 [Example 149, 2-cyclohexyl-1-[(2,5-dimethylphenyl)carbonyl]-4,4-dimethyl-1,2-diazetidin-3-one] |  |  | 0.9 µM
5 | CC1(C)C(=O)N(C2CCCCCCC2)N1C(=O)c1cccc2ccccc12 [Example 154, 2-cyclooctyl-4,4-dimethyl-1-(naphthalen-1-ylcarbonyl)-1,2-diazetidin-3-one] |  |  | 0.036 µM
6 | CSc1ccccc1C(=O)N1N(C2CCCCCCC2)C(=O)C1(C)C [Example 168, 2-cyclooctyl-4,4-dimethyl-1-{[2-(methylthio)phenyl]carbonyl}-1,2-diazetidin-3-one] |  |  | 0.11 µM
7 | COCOc1ccc(N2N(C3C4CC5CC(C4)CC3C5)C(=O)C2(C)C)cc1 (stereo not drawn) [Example 214, 1-[4-(methoxymethoxy)phenyl]-4,4-dimethyl-2-(adamantan-2-yl)-1,2-diazetidin-3-one] |  |  | 0.041 µM
8 | COc1ccccc1N1N(C2CC3CCC2C3)C(=O)C1(C)C (stereo not drawn) [Example 223, 2-(bicyclo[2.2.1]heptan-2-yl)-1-(2-methoxyphenyl)-4,4-dimethyl-1,2-diazetidin-3-one] |  |  | 0.68 µM
9 | CC1(C)C(=O)N([C@H]2C3CC4CC2C[C@](O)(C4)C3)N1c1ccccc1 [Example 226, trans-2-(5-hydroxyadamantan-2-yl)-4,4-dimethyl-1-phenyl-1,2-diazetidin-3-one] |  |  | 0.95 µM
10 | COc1ccc(N2N([C@H]3C4CC5CC3C[C@](O)(C5)C4)C(=O)C2(C)C)cc1 [Example 230, trans-2-(5-hydroxyadamantan-2-yl)-1-(4-methoxyphenyl)-4,4-dimethyl-1,2-diazetidin-3-one] |  |  | 0.54 µM
11 | COc1ccc(N2N([C@H]3C4CC5CC3C[C@@](O)(C5)C4)C(=O)C2(C)C)cc1 [Example 240, cis-2-(5-hydroxyadamantan-2-yl)-1-(4-methoxyphenyl)-4,4-dimethyl-1,2-diazetidin-3-one] |  |  | 0.32 µM
12 | Cc1ccccc1N1N([C@H]2C3CC4CC2C[C@@](O)(C4)C3)C(=O)C1(C)C [Example 242, cis-2-(5-hydroxyadamantan-2-yl)-4,4-dimethyl-1-(2-methylphenyl)-1,2-diazetidin-3-one] |  |  | 0.076 µM
13 | CC1(C)C(=O)N([C@H]2C3CC4CC2C[C@@](O)(C4)C3)N1c1ccccc1O [Example 244, cis-1-(2-hydroxyphenyl)-2-(5-hydroxyadamantan-2-yl)-4,4-dimethyl-1,2-diazetidin-3-one] |  |  | 0.81 µM
14 | CC1(C)C(=O)N([C@H]2C3CC4CC2C[C@@](Cl)(C4)C3)N1c1cccc(Cl)c1Cl [Example 256, cis-2-(5-chloroadamantan-2-yl)-1-(2,3-dichlorophenyl)-4,4-dimethyl-1,2-diazetidin-3-one] |  |  | 0.26 µM

Next, values leading:

Row | IC50 (mouse 11β-HSD1) | IC50 (human 11β-HSD1; Table 2) | IC50 (human 11β-HSD1; Table 1) | Compound
15 | 0.023 µM | 0.047 µM |  | CC1(C)C(=O)N(C2C3CC4CC(C3)CC2C4)N1Cc1ccccc1 (stereo not drawn) [Example 12, 1-benzyl-4,4-dimethyl-2-(adamantan-2-yl)-1,2-diazetidin-3-one]
16 | 0.025 µM | 0.058 µM |  | CC1(C)C(=O)N(C2C3CC4CC(C3)CC2C4)N1Cc1ccc(Cl)cc1 (stereo not drawn) [Example 13, 1-(4-chlorobenzyl)-4,4-dimethyl-2-(adamantan-2-yl)-1,2-diazetidin-3-one]
17 | 0.088 µM | 0.84 µM |  | Cc1ccc(CN2N(C3C4CC5CC(C4)CC3C5)C(=O)C2(C)C)cc1 (stereo not drawn) [Example 14, 4,4-dimethyl-1-(4-methylbenzyl)-2-(adamantan-2-yl)-1,2-diazetidin-3-one]
18 | 0.084 µM | 0.36 µM |  | CC1(C)C(=O)N(C2C3CC4CC(C3)CC2C4)N1Cc1ccc(F)cc1 (stereo not drawn) [Example 15, 1-(4-fluorobenzyl)-4,4-dimethyl-2-(adamantan-2-yl)-1,2-diazetidin-3-one]
19 | 0.23 µM | 0.71 µM |  | CC1(C)C(=O)N(C2C3CC4CC(C3)CC2C4)N1Cc1ccc(F)cc1F (stereo not drawn) [Example 17, 1-(2,4-difluorobenzyl)-4,4-dimethyl-2-(adamantan-2-yl)-1,2-diazetidin-3-one]
20 | 0.27 µM | 0.47 µM |  | CC1(C)C(=O)N(C2C3CC4CC(C3)CC2C4)N1Cc1cccc(F)c1F (stereo not drawn) [Example 19, 1-(2,3-difluorobenzyl)-4,4-dimethyl-2-(adamantan-2-yl)-1,2-diazetidin-3-one]
21 | 0.2 µM | 0.35 µM |  | CC1(C)C(=O)N(C2C3CC4CC(C3)CC2C4)N1Cc1cc(F)ccc1F (stereo not drawn) [Example 20, 1-(2,5-difluorobenzyl)-4,4-dimethyl-2-(adamantan-2-yl)-1,2-diazetidin-3-one]
22 | 0.079 µM | 0.64 µM |  | CC1(C)C(=O)N(C2C3CC4CC(C3)CC2C4)N1Cc1cccc(F)c1 (stereo not drawn) [Example 22, 1-(3-fluorobenzyl)-4,4-dimethyl-2-(adamantan-2-yl)-1,2-diazetidin-3-one]
23 | 0.094 µM | 0.03 µM |  | CC1(C)C(=O)N(C2C3CC4CC(C3)CC2C4)N1Cc1ccccc1Cl (stereo not drawn) [Example 27, 1-(2-chlorobenzyl)-4,4-dimethyl-2-(adamantan-2-yl)-1,2-diazetidin-3-one]
24 |  |  | 0.07 µM | CC1(C)C(=O)N(C2C3CC4CC(C3)CC2C4)N1C(=O)c1ccccc1I (stereo not drawn) [Example 121, 1-[(2-iodophenyl)carbonyl]-4,4-dimethyl-2-(adamantan-2-yl)-1,2-diazetidin-3-one]
25 |  |  | 0.32 µM | CC1(C)C(=O)N(C2C3CC4CC(C3)CC2C4)N1C(=O)c1cc(Cl)ccc1Cl (stereo not drawn) [Example 122, 1-[(2,5-dichlorophenyl)carbonyl]-4,4-dimethyl-2-(adamantan-2-yl)-1,2-diazetidin-3-one]
26 |  |  | 0.11 µM | CCc1ccccc1C(=O)N1N(C2C3CC4CC(C3)CC2C4)C(=O)C1(C)C (stereo not drawn) [Example 126, 1-[(2-ethylphenyl)carbonyl]-4,4-dimethyl-2-(adamantan-2-yl)-1,2-diazetidin-3-one]
27 |  |  | 0.66 µM | CC1(C)C(=O)N(C2C3CC4CC(C3)CC2C4)N1C(=O)c1ccc(F)cc1C(F)(F)F (stereo not drawn) [Example 132, 1-[(4-fluoro-2-trifluoromethylphenyl)carbonyl]-4,4-dimethyl-2-(adamantan-2-yl)-1,2-diazetidin-3-one]
28 |  |  | 0.14 µM | CC1(C)C(=O)N(C2C3CC4CC(C3)CC2C4)N1C(=O)c1ccccc1N (stereo not drawn) [Example 136, 1-[(2-aminophenyl)carbonyl]-4,4-dimethyl-2-(adamantan-2-yl)-1,2-diazetidin-3-one]
29 |  |  | 0.72 µM | CC1(C)C(=O)N(C2C3CC4CC(C3)CC2C4)N1C(=O)c1cc(Cl)ccc1Br (stereo not drawn) [Example 163, 1-[(2-bromo-5-chlorophenyl)carbonyl]-4,4-dimethyl-2-(adamantan-2-yl)-1,2-diazetidin-3-one]
30 |  |  | 0.096 µM | CSc1ccccc1C(=O)N1N(C2C3CC4CC(C3)CC2C4)C(=O)C1(C)C (stereo not drawn) [Example 165, 4,4-dimethyl-1-{[2-(methylthio)phenyl]carbonyl}-2-(adamantan-2-yl)-1,2-diazetidin-3-one]
